Laboratory results taken from US11530226B2, “Azepane inhibitors of menin-MLL interaction” (Janssen Pharmaceutica NV, priority 2016, dated 2022).

Legend:
[1] = target: T1, menin / FITC-MBM1 peptide (Menin/MLL) (Homo sapiens, UniProt O00255); test: Menin/MLL fluorescence polarization (FP) assay; type: binding; details: read-out: (1) Menin FP assay (IC50 (μM))
T1 sequence (O00255 1-610): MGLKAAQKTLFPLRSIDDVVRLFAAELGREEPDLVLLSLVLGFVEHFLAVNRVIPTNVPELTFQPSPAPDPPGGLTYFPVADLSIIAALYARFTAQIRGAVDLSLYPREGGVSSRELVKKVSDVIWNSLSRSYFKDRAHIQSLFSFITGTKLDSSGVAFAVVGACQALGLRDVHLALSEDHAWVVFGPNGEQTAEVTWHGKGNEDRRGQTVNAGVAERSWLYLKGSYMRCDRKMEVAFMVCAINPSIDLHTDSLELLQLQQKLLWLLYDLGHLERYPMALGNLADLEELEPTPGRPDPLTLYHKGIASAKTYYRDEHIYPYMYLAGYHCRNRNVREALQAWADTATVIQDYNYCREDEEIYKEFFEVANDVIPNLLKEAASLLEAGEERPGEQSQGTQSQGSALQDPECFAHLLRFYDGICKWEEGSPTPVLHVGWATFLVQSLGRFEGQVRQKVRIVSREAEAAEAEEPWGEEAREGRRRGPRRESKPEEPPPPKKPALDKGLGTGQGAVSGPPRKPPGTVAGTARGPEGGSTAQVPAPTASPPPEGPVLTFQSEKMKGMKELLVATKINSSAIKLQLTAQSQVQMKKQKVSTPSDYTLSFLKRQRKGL
Protocol: Pharmacological Part 1) Menin/MLL Fluorescence Polarization Assay
To a non-surface binding, black 384-well microtiter plate was added 50 nL 160× test compound in DMSO and 4 μL 2× menin in assay buffer (40 mM TrisHCl, pH 7.5, 50 mM NaCl, 1 mM DTT and 0.001% Tween 20). After incubation of test compound and menin for 10 min at ambient temperature, 4 μL 2×FITC-MBM1 peptide (FITC-β-alanine-SARWRPPARPGT-NH2) in assay buffer was added, the microtiter plate centrifuged at 1000 rpm for 1 min and the assay mixtures incubated for 15 min at ambient temperature. The relative amount of menin -FITC-MBM1 complex present in an assay mixture is determined by measuring the fluorescence polarization (FP) of the FITC label with a BMG Pherastar plate reader (ex. 485 nm/em. 520 nm) at ambient temperature. The final concentrations of reagents in the binding assay are 100 nM menin, 5 nM FITC-MBM1 peptide and 0.625%>DMSO in assay buffer. Dose-response titrations of test compounds are conducted using an 11 point, three-fold serial dilution scheme, starting at 31 μM.
Compound potencies were determined by first calculating % inhibition at each compound concentration according to equation 1: % inhibition=((HC−LC)−(FPcompound−LC))/(HC−LC))*100 (Eqn 1)
Where LC and HC are the FP values of the assay in the presence or absence of a saturating concentration of a compound that competes with FITC-MBM1 for binding to menin, and FP^compound is the measured FP value in the presence of the test compound. HC and LC FP values represent an average of at least 16 replicates per plate.
Where Bottom and Top are the lower and upper asymptotes of the dose-response curve, respectively, IC50 is the concentration of compound that yields 50% inhibition of signal and h is the Hill coefficient.

[2] = system: K562 cells (two MLL wildtype alleles); test: Proliferation assay (spheroid-like growth, 8 d, live-cell imaging), K562 control cell line; type: cell-based; details: Homo sapiens, 192 h, absolute IC50 from AUC of confluence, read-out: (3) Spheroid assay K562
Protocol: The anti-proliferative effect of menin/MLL protein/protein interaction inhibitor test compounds was assessed in human leukemia cell lines. The cell lines MV-4-1 1 and MOLM14 harbor MEL translocations and express the MEL fusion proteins MLL-AF4 and MLL-AF9, respectively, as well as the wildtype protein from the second allele. […] K562 was used as a control cell line containing two MLL wildtype alleles in order to exclude compounds that display general cytotoxic effects.
MV-4-1 1 and MOLM14 were cultured in RPMI-1640 (Sigma Aldrich) supplemented with 10% fetal bovine serum (HyClone), 2 mM L-glutamine (Sigma Aldrich) and 50 μg/ml gentamycin (Gibco). […]
In order to assess the anti-proliferative effects, 1,500 MV-4-1 1, 300 MOLM14 or 750 K562 cells were seeded in 200 μl media per well in 96-well round bottom, ultra-low attachment plates (Costar, catalogue number 7007). […] Spheroid like growth was monitored in real-time by live-cell imaging (IncuCyteZOOM, Essenbio, 4× objective) acquiring one image every four hours for 8d. Confluence (%) as a measure of spheroid size was determined using an integrated analysis tool.
In order to determine the cumulative effect of the test compounds over time, the area under the curve (AUC) in a plot of confluence against time was calculated. […]

| IC50 [1] [µM] | IC50 [2] [µM] | SMILES |
| --- | --- | --- |
| 0.054 | – | CC(C)CNC1CCCN(c2ncnc3sc(CC(F)(F)F)cc23)CC1 (single isomer, unassigned) [Compound B1A, N-isobutyl-1-(6-(2,2,2-trifluoroethyl)thieno[2,3-d]pyrimidin-4-yl)azepan-4-amine] |
| 0.44 | – | CC(C)CNC1CCCN(c2ncnc3sc(CC(F)(F)F)cc23)CC1 (single isomer, unassigned) [Compound B1B, N-isobutyl-1-(6-(2,2,2-trifluoroethyl)thieno[2,3-d]pyrimidin-4-yl)azepan-4-amine] |
| 0.038 | 9.7 | FC(F)(F)Cc1cc2c(N3CCC[C@@H](NCc4ccccc4)CC3)ncnc2s1 [Compound 3, (R)N-benzyl-1-(6-(2,2,2-trifluoroethyl)thieno[2,3-d]pyrimidin-4-yl)azepan-4-amine] |
| 0.23 | 8.8 | FC(F)(F)Cc1cc2c(N3CCC[C@H](NCc4ccccc4)CC3)ncnc2s1 [Compound 4, (S)-N-benzyl-1-(6-(2,2,2-trifluoroethyl)thieno[2,3-d]pyrimidin-4-yl)azepan-4-amine] |
